Drawing on ChEMBL document CHEMBL4251586, “Design, synthesis and evaluation of an anthraquinone derivative conjugated to myelin basic protein immunodominant (MBP85-99) epitope: Towards selective immunosuppression” (Eur J Med Chem, 2018), this text covers Activity, IC50 and Drug uptake for three compounds.

Series [1] relates to Jurkat. The series can be described thus: Induction of apoptosis in human Jurkat T cells assessed as downregulation of Bcl2 expression at 10 uM after 48 hrs by Western blot analysis. It counts as functional. (In general: In western blotting, separated proteins are transferred to a membrane and probed.)
For series [2], the system named is HEK293. The series can be described thus: Cytotoxicity against HEK293 cells after 48 hrs by MTT assay. Format: cell-based, Homo sapiens. Background: Formazan colour is commonly taken as a measure of viable cells.
The nature of series [3]: Drug internalization in HEK293 cells at 10 uM after 30 to 60 mins by inverted fluorescence microscopy. Format: ADME, cell-based. The settings on record: human, hek293, 10 µM.

Take `O=C1c2c(O)ccc(O)c2C(=O)c2c(NCCNCCO)ccc(NCCNCCO)c21` [MITOXANTRONE]: in series [1], the Activity is given as 50%.

In the case of `O=C(CS)NCCCCNc1ccc(O)c2c1C(=O)c1ccccc1C2=O`, the Activity in series [1] was determined as 40%.

`NCCCCNc1ccc(O)c2c1C(=O)c1ccccc1C2=O.O=C(O)C(F)(F)F` had an IC50 in series [2] (Homo sapiens, HEK293, 48 h) of 9.4 µM. Further, the Activity result in series [2] (human, hek293, 48 h) was “Dose-dependent effect”. In series [3], the Drug uptake result is recorded as “Active”.

Usually IC50 stands for the concentration that gives 50% inhibition. A low value points to greater potency.
